From US7884204B2, “Phenylalanine derivatives” (Ajinomoto Co., Inc., priority 2001, dated 2011)

Columns and labels:
integrin α4β7 = target: T1, integrin α4β7 (Homo sapiens, UniProt P13612+P26010); experiment: VCAM antagonistic activity (VCAM-1/α4β7 binding assay), RPMI-8866 cells binding to VCAM-1; format: cell-based; conditions: RPMI-8866 cells binding to recombinant human VCAM-1, binding buffer containing 4 mM MnCl2, 30 minutes at room temperature
T1 construct: lymphoma cell strain RPMI-8866 of human B cells, known to express integrin α4β7; endogenous in cells; host or cells: RPMI-8866, human B-cell lymphoma line
T1 sequence (P13612 34-1032): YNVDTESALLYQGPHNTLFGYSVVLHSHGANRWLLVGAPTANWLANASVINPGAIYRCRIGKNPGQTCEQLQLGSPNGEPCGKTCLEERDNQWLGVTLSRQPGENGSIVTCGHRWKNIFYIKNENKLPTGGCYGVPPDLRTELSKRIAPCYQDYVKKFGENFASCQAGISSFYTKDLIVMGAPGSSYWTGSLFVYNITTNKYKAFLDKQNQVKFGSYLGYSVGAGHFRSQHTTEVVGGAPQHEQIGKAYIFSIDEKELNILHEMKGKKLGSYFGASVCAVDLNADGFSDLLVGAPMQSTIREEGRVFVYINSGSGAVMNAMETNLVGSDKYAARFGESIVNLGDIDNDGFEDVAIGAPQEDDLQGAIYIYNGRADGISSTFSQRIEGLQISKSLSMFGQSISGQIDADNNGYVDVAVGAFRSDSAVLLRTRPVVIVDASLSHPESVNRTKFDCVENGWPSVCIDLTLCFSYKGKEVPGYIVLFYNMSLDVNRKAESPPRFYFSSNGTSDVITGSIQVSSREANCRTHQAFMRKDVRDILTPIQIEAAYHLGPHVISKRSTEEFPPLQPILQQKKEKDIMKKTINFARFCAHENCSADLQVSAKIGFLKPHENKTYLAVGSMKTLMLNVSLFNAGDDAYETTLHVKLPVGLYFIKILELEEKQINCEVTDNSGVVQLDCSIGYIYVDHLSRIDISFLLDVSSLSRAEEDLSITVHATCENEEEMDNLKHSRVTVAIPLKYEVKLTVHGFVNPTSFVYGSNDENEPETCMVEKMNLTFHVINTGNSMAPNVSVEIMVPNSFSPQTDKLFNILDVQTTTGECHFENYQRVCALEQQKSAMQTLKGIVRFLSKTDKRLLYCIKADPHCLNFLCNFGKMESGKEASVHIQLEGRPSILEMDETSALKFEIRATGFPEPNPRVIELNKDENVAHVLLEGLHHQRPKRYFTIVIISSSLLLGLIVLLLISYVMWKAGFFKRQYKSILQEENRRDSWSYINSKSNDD
T1 sequence (P26010 20-798): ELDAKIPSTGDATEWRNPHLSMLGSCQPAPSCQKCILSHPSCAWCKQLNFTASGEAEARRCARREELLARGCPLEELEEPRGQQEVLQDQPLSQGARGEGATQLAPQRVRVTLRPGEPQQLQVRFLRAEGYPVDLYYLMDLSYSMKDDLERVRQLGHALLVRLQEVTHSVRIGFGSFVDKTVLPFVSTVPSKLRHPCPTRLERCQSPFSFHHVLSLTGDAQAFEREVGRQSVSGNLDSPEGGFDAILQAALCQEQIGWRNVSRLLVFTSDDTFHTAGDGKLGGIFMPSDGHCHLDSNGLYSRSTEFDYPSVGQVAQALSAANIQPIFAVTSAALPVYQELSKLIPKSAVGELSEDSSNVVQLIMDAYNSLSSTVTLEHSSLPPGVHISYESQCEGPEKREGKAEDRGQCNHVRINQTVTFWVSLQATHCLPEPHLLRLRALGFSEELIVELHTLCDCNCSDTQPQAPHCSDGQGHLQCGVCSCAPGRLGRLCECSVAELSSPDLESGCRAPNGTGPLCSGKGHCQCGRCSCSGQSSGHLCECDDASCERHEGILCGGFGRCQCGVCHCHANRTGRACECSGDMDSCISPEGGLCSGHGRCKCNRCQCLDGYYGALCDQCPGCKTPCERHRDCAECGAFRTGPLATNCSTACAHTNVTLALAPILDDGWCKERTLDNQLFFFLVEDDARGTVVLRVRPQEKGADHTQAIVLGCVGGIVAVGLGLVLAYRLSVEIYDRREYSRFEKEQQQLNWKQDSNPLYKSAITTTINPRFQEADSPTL
Method: VCAM Antagonistic Activity (VCAM-1/α4β7 Binding Assay)
The capacity of a test substance antagonistic to the binding of lymphoma cell strain RPMI-8866 of human B cells, known to express integrin α4β7, to VCAM-1 was determined.
(§1) 100 μl/well of a solution (500 ng/ml) of recombinant human VCAM-1 (R & D systems) solution diluted with buffer A (0.1 M NaHCO3, pH 9.6) was added to a micro titer plate having 96 wells (Nunc Maxisorp). After the incubation at 4° C. overnight, unbound VCAM-1 was removed by washing once with PBS. After completion of the washing, a buffer (buffer B) obtained by diluting Block Ace (Dainippon Pharmaceutical Co., Ltd.) with PBS to ¼ concentration was added in an amount of 150 μl/well. After the incubation at room temperature for 1 hour, buffer B was removed and the plate was washed with PBS once.
RPMI-8866 cells were incubated in Dulbecco modified Eagle medium containing 10 μg/ml of Calcein-AM (Wako Pure Chemical Industries, Ltd.) (SIGMA, hereinafter referred to as “DMEM”) at 37° C. for 30 minutes to label with fluorescence. The cells were again suspended in a binding buffer (20 mM HEPES, DMEM containing 0.1% BSA) containing 4 mM of MnCl2.
(§2) 50 μl of a test substance of various concentrations obtained by the dilution with the binding buffer was added to the plate. Immediately thereafter, 50 μl (final volume: 100 μl/well) of the fluorescent RPMI-8866 cells (4×10^6 cells/ml) were added thereto, and they were incubated at room temperature for 30 minutes. After the shaking on a plate shaker (IKA MTS-4) at 800 rpm for 30 seconds, the solution was immediately removed to remove the unbound cells. The fluorescence quantity of the bound cells remaining in the wells was determined with a fluorescent plate reader (Wallac 1420 ARVO multi-label counter) (filter excitation wave length: 485 nm, emission wave length: 535 nm). The fluorescent strength thus obtained is proportional to the number of RPMI-8866 cells bound to VCAM-1 and remaining on the plate. The binding rate of each test material in various concentrations was determined while the fluorescent strength of the test material-free well was determined to be 100%. The concentration IC50 for the 50% binding inhibition was calculated.

integrin α4β1 = target: T2, integrin α4β1 (Homo sapiens, UniProt P05556+P13612); experiment: VCAM antagonist activity (VCAM-1/α4β1 binding assay), Jurkat cells binding to VCAM-1; format: cell-based; conditions: Jurkat cells binding to recombinant human VCAM-1, 30 minutes at room temperature; read-out: VCAM antagonistic activity IC50, α4β1
T2 construct: cell strain Jurkat (ATCC TIB-152) of human T cells, known to express integrin α4β1; endogenous in cells; host or cells: Jurkat (ATCC TIB-152), human T cells
T2 sequence (P05556 21-798, one chain of several): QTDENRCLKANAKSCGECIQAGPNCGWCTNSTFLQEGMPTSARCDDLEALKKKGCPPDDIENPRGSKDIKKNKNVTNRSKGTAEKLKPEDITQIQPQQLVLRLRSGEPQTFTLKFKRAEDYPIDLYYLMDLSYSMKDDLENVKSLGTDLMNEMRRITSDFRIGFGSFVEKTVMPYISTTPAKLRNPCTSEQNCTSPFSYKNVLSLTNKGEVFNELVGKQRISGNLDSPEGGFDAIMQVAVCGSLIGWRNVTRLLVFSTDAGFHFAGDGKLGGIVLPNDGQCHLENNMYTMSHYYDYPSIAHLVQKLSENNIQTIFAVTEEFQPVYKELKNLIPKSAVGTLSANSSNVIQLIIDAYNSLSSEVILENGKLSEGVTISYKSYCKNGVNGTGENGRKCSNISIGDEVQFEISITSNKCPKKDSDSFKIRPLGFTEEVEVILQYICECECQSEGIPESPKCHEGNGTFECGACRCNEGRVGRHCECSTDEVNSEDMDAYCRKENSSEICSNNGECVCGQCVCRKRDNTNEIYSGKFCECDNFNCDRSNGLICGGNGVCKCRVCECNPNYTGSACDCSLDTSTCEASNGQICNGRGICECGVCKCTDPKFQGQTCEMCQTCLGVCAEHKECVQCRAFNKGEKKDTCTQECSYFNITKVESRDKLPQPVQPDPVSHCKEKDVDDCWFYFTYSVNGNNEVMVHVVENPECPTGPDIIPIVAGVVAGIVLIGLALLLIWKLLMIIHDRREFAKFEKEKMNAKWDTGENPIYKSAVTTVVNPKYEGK
Method: VCAM Antagonist Activity (VCAM-1/α4β1 Binding Assay)
The capacity of a test substance antagonistic to the binding of cell strain Jurkat (ATCC TIB-152) of human T cells, known to express integrin α4β1, to VCAM-1 was determined.
as §1
Jurkat cells were washed with Dulbecco modified Eagle medium (SIGMA, hereinafter referred to as “DMEM”) twice and then incubated in DMEM containing 10 μg/ml of Calcein-AM (Wako Pure Chemical Industries, Ltd.) at 37° C. in dark place for 30 minutes to label with fluorescence. The cells were again suspended in a binding buffer (20 mM HEPES, DMEM containing 0.1% BSA).
as §2, with “Jurkat” for “RPMI-8866”

Compound | IC50 (integrin α4β7) [µM] | IC50 (integrin α4β1) [µM]
Cn1c(=O)c(-c2ccc(C[C@H](NC(=O)c3c(Cl)cccc3Cl)C(=O)O)cc2)cc2ccccc21 [Example 1, (2S)-2-[(2,6-dichlorobenzoyl)amino]-3-[4-(1-methyl-2-oxo-1,2-dihydro-3-quinolinyl)phenyl]propionic acid] | 0.09 | 0.62
CC1CN(c2ccc(C[C@H](NC(=O)c3c(Cl)cccc3Cl)C(=O)O)cc2)C(=O)c2ccccc21 (some centres unmarked) [Example 46] | 0.067 | –
O=C(N[C@@H](Cc1ccc(N2Cc3ccccc3CC2=O)cc1)C(=O)O)c1c(Cl)cccc1Cl [Example 47] | 0.097 | –
Cn1c(=O)c(-c2ccc(C[C@H](NC(=O)c3c(Cl)cccc3Cl)C(=O)O)cc2)cc2cc(O)ccc21 [Example 33] | 0.021 | 0.255
Cn1c(=O)c(-c2ccc(C[C@H](NC(=O)c3c(Cl)ccnc3Cl)C(=O)O)cc2)cc2ccccc21 [Example 19] | 0.011 | 0.29
CCC(CC)(C(=O)N[C@@H](Cc1ccc(-c2cc3ccccc3n(C)c2=O)cc1)C(=O)O)C(=O)N1CCCC1 [Example 8, (2S)-2-[[2-ethyl-2-(1-pyrrolidinecarbonyl)butanoyl]amino]-3-[4-(1-methyl-2-oxo-1,2-dihydro-3-quinolinyl)phenyl]propionic acid] | 0.018 | 0.32
Cc1cn(-c2ccc(C[C@H](NC(=O)c3c(Cl)cccc3Cl)C(=O)O)cc2)c(=O)c2ccccc12 [Example 23] | 0.035 | –
O=C(N[C@@H](Cc1ccc(N2C(=O)c3cccc(=O)n3C2=O)cc1)C(=O)O)c1c(Cl)cccc1Cl [Example 22] | 0.15 | –
CCC(CC)(C(=O)N[C@@H](Cc1ccc(N2C(=O)c3cccc(C)c3C2=O)cc1)C(=O)O)C(=O)N1CCCC1 [Example 26] | 0.044 | –

Continued, values first:

IC50 (integrin α4β7) [µM] | IC50 (integrin α4β1) [µM] | Compound
0.0024 | 0.19 | O=C(N[C@@H](Cc1ccc(-n2ncc3ccccc3c2=O)cc1)C(=O)O)c1c(Cl)cccc1Cl [Example 21]
0.0033 | 0.15 | Cn1c(=O)c(-c2ccc(C[C@H](NC(=O)c3c(Cl)cccc3Cl)C(=O)O)cc2)cc2cc([N+](C)(C)C)ccc21 [Example 14]
0.0045 | 0.074 | CCOc1c(-c2ccc(C[C@H](NC(=O)c3c(Cl)cccc3Cl)C(=O)O)cc2)c(=O)n(C)c2ccccc12 [Example 41]
0.003 | 0.047 | Cn1c(=O)c(-c2ccc(C[C@H](NC(=O)c3c(Cl)cc(NS(C)(=O)=O)cc3Cl)C(=O)O)cc2)cc2ccccc21 [Example 31]
0.01 | 0.178 | CCn1c(=O)c(-c2ccc(C[C@H](NC(=O)c3c(Cl)cccc3Cl)C(=O)O)cc2)c(C)c2ccccc21 [Example 43]
0.011 | 0.168 | COc1c(-c2ccc(C[C@H](NC(=O)c3c(Cl)cccc3Cl)C(=O)O)cc2)c(=O)n(C)c2ccc(Cl)cc12 [Example 44]
0.0073 | 0.037 | CCCc1c(-c2ccc(C[C@H](NC(=O)c3c(Cl)cccc3Cl)C(=O)O)cc2)c(=O)n(C)c2ccccc12 [Example 45]
0.0039 | 0.064 | Cn1c(=O)c(-c2ccc(C[C@H](NC(=O)c3c(Cl)cccc3Cl)C(=O)O)cc2)cc2cc(S(C)(=O)=O)ccc21 [Example 30]
0.0065 | 0.115 | CCCOc1c(-c2ccc(C[C@H](NC(=O)c3c(Cl)cccc3Cl)C(=O)O)cc2)c(=O)n(C)c2ccccc12 [Example 40]
0.0035 | 0.044 | COc1c(-c2ccc(C[C@H](NC(=O)c3c(Cl)cccc3Cl)C(=O)O)cc2)c(=O)n(C)c2ccccc12 [Example 6, (2S)-2-[(2,6-dichlorobenzoyl)amino]-3-[4-(4-methoxy-1-methyl-2-oxo-1,2-dihydro-3-quinolinyl)phenyl]propionic acid]
0.0041 | 0.052 | Cc1c(-c2ccc(C[C@H](NC(=O)c3c(Cl)cccc3Cl)C(=O)O)cc2)c(=O)n(C)c2ccccc12 [Example 42]
